Measured values reported in PubChem BioAssay (NCI).
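Assay format: 96-well plates, 48-hour exposure. TGI: concentration producing complete growth inhibition.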 Where a SMILES comes first, the peptide text is derived from it. [ ]: non-standard residue; d: D form. The star is where a group is joined. ξ: configuration not given here. dThr(3ξ) = CC(O)[C@@H](N)C(=O)O; dNMeL = CN[C@H](CC(C)C)C(=O)O; OBn = c1ccc(CO*)cc1; ξLac = CC(O)C(=O)O

Columns and labels:
Test in all cases: NCI tumour cell line growth inhibition, 48 h
HOP-92 NSCLC = test system: HOP-92 NSCLC
DLD-1 colon = test system: DLD-1 colon
NCI-H522 lung = test system: NCI-H522 lung
HOP-62 NSCLC = test system: HOP-62 NSCLC
OVCAR-3 ovarian = test system: OVCAR-3 ovarian
SF-295 CNS = test system: SF-295 CNS
RXF 393 renal = test system: RXF 393 renal
786-0 renal = test system: 786-0 renal
OVCAR-4 ovarian = test system: OVCAR-4 ovarian
HCT-15 colon = test system: HCT-15 colon
SK-MEL-2 melanoma = test system: SK-MEL-2 melanoma
SF-539 CNS = test system: SF-539 CNS
CCRF-CEM leukemia = test system: CCRF-CEM leukemia
SR leukemia = test system: SR leukemia
EKVX NSCLC = test system: EKVX NSCLC
SN12C renal = test system: SN12C renal
MDA-N = test system: MDA-N
HS 578T breast = test system: HS 578T breast
BT-549 breast = test system: BT-549 breast
KM12 colon = test system: KM12 colon

Structure (SMILES) | TGI (HOP-92 NSCLC) [µM] | TGI (DLD-1 colon) [µM] | TGI (NCI-H522 lung) [µM] | TGI (HOP-62 NSCLC) [µM] | TGI (OVCAR-3 ovarian) [µM] | TGI (SF-295 CNS) [µM] | TGI (RXF 393 renal) [µM] | TGI (786-0 renal) [µM] | TGI (OVCAR-4 ovarian) [µM] | TGI (HCT-15 colon) [µM] | TGI (SK-MEL-2 melanoma) [µM] | TGI (SF-539 CNS) [µM] | TGI (CCRF-CEM leukemia) [µM] | TGI (SR leukemia) [µM] | TGI (EKVX NSCLC) [µM] | TGI (SN12C renal) [µM] | TGI (MDA-N) [µM] | TGI (HS 578T breast) [µM] | TGI (BT-549 breast) [µM] | TGI (KM12 colon) [µM]
O=C(O)C(Cc1c[nH]c2ccccc12)N=Cc1nc(-c2ccccc2)oc1O (stereo unspecified) | > 100 | > 100 | > 100 | > 100 | > 100 | > 100 | > 100 | > 100 | > 100 | > 100 | > 100 | > 100 | > 100 | > 100 | > 100 | > 100 |  |  |  | 
CC(=O)OC(C)[C@@H](NC(=O)[C@@H](CC(C)C)N(C)C(=O)[C@@H]1CCCN1C(=O)C(C)O)C(=O)OCc1ccccc1 (stereo partly specified) (H-[ξLac]P[dNMeL][dThr(3ξ)](Ac)-OBn) | > 100 |  | > 100 | > 100 | > 100 | > 100 | > 100 | > 100 | > 100 | > 100 | > 100 | > 100 | > 100 | > 100 | > 100 | > 100 | > 100 | > 100 | > 100 | > 100
Cn1c(=O)c2c(no[n+]2[O-])n(C)c1=O | 44.1 |  | 30 | 47.3 | > 100 | > 100 | 94.2 | 71.8 | > 100 | > 100 | > 100 | > 100 | > 100 | > 100 | 67.9 | > 100 | 50.7 | 64.9 | 51.9 | > 100
COC(=O)C1Cc2cccc(C)c2C1 (stereo unspecified) | > 100 |  | > 100 | > 100 | > 100 | > 100 | > 100 | > 100 | > 100 | > 100 | > 100 | > 100 | > 100 | > 100 | > 100 | > 100 | > 100 | > 100 | > 100 | > 100
NS(=O)(=O)c1ccc(NNc2c3ccccc3nc3ccccc23)cc1 | 23.4 |  | 16.4 | 22.4 | 15 | 19.8 | 23 | 17.4 | 17.2 | 15.5 | 18.1 | 17.2 | 18.5 | 21.4 | 21.1 | 23.1 | 17.5 | 23.8 | 15.1 | 16.5
CC(=O)Nc1ccc(C(=O)NN2C(=O)C(Cl)C2c2cc(Br)ccc2O)cc1 (stereo unspecified) | > 100 | > 100 | > 100 | > 100 | > 100 | > 100 |  | > 100 | > 100 | > 100 | > 100 | > 91.9 | > 100 | > 100 | > 100 | > 100 | > 100 | > 100 | > 100 | > 100
COC(=O)C(=O)c1c2ccccc2n2ccc3c4ccccc4[nH]c3c12 | > 10 |  | > 10 | > 10 | > 10 | > 10 | > 10 | > 10 | > 10 | > 10 | > 10 | > 10 | > 10 | > 10 | > 10 | > 10 | > 10 | > 10 | > 10 | > 10
COC(=O)C1=NN2c3ccccc3C(=O)OCCC2(C)C1 (stereo unspecified) | > 100 |  | > 100 | > 100 | > 100 | > 100 | > 100 | > 100 | > 100 | > 100 | > 100 | > 100 | > 100 | > 100 | > 100 | > 100 | > 100 | > 100 | > 100 | > 100
CN(CCCNC(=O)c1cn(C)c2c1ccc1cc(Cl)c(Cl)cc12)CCCNC(=O)c1cn(C)c2c1ccc1cc(Cl)c(Cl)cc12 | 33.4 |  | 31.5 | > 57.7 | > 54.9 | 38.3 | 16.7 | 49.4 | 25.3 | 27.5 | 31.5 | 32.1 | 38.7 | 16.5 | 31.5 | 32.3 | 36 | 27.6 | 33.3 | 20.8
Cc1ccc2c(c1)C(=O)C(Cc1ccccc1C(=O)O)C2 (stereo unspecified) | > 100 |  | > 100 | > 100 | > 100 | > 100 | > 100 | > 100 | > 100 | > 100 | > 100 | > 100 | > 100 | > 100 | > 100 | > 100 | > 100 | > 100 | > 100 | > 100
C=C[C@]1(C)CCC2=C(CCC3C2(C)CCC[C@]3(C)CO)C1 (stereo partly specified) | > 100 | > 100 | 52.5 | > 100 | > 100 | > 100 | 84.4 | > 100 | > 100 | > 100 | > 100 | > 100 | > 100 | > 100 | > 100 | 43.6 |  |  |  | > 100
COC1C=CC(C(=O)[N+]2=Cc3[nH]c4ccccc4c3CC2)O1 (stereo unspecified) | > 100 | > 100 | > 100 | > 100 | > 100 | > 100 | > 100 | > 100 | > 100 | > 100 | > 100 | > 100 | 76.6 | 82.7 | > 100 | > 100 |  |  |  | > 100
COc1ccc(NC(=O)C(=O)C2CNC(=O)NC2=O)c(OC)c1 (stereo unspecified) | > 100 | > 100 | > 100 | > 100 | > 100 | > 100 | > 100 | > 100 | > 100 | > 100 | > 100 | > 100 | > 100 | > 100 | > 100 | > 100 |  |  |  | > 100
CCOc1ccccc1N=Nc1c(-c2ccccc2)nn(C(=O)CC(=O)Nc2cccc(Cl)c2)c1-c1ccccc1 | > 100 | > 100 | > 100 | > 100 | > 100 | > 100 | > 100 | > 100 | > 100 |  | > 100 | > 100 | > 100 | > 100 | > 100 | > 100 |  |  |  | > 100
N#Cc1c(-c2ccccc2)c(N=Nc2ccc(F)cc2)c(=O)n2c1[nH]c1ccccc12 | 14.2 |  | 14.7 | 29.3 | 8.57 | 24.8 | 44.6 | 14.3 | 31.5 | > 100 | > 100 | 32.2 | 7.57 | 55.8 | 41.3 | 10.2 | 52.9 | 31.4 | 89.2 | 65
CC(=O)CCNc1ccc(-c2cc(-c3ccc(N(C)C)cc3)nc3ccc4ccccc4c23)cc1 | > 100 |  | > 100 | > 100 | > 100 | > 100 | > 100 | > 100 | > 100 | > 100 | > 100 | > 100 | > 100 | > 100 | > 100 | > 100 | > 100 | > 100 | > 100 | > 100
O=c1c2cc([N+](=O)[O-])ccc2n(Cc2ccccc2)n1Cc1ccccc1 | > 31.6 |  | 23.6 | > 31.6 | > 31.6 | > 31.6 | > 31.6 | > 31.6 | > 31.6 | > 31.6 | 20.2 | > 31.6 | > 31.6 | > 31.6 | > 31.6 | > 31.6 | 21.2 | > 31.6 | 27 | 22.2
Nc1cc2c3c(cccc3c1)C(=O)N(c1ccc(OCCN3CCCCC3)cc1)C2=O | 34.2 |  | 35.2 | 31.8 | 30.7 | 33.4 | 35.7 | 43.3 | 35.7 | 25.4 | 31.6 | 27.9 | 88.3 | 36.6 | 45.7 | > 54.3 | 41.2 | 63.4 | 38.4 | 41.3
OCC1OC(Oc2cc(O)cc(/C=C\c3ccc(O)cc3)c2)C(O)C(O)C1O (stereo unspecified) | > 100 |  | > 100 | > 100 | > 100 | > 100 | > 100 | > 100 | > 100 | > 100 | > 100 | > 100 | > 100 | > 100 | > 100 | > 100 | > 100 | > 100 | > 100 | > 100
CCOC(=O)C(Cc1ccccc1)NC(=O)c1ccc(N=NN(C)C)cc1 (stereo unspecified) |  | > 100 | > 100 | > 100 | > 100 | > 100 |  | > 100 | > 100 | > 100 | > 100 | > 100 | > 100 | > 100 | > 100 | > 100 |  |  |  | > 100
O=C(NCc1ccccc1)c1cc2cc(O)c(O)cc2cn1 | > 100 | > 100 | > 100 | 81.1 | > 100 | > 100 | 62.3 | > 100 | > 100 | > 100 | 97.6 | > 100 | > 100 | > 100 | > 100 | > 100 |  |  |  | > 100
CCCN1CN(C(C(=O)N[C@@H]2C(=O)N3C2SC(C)(C)C3C(=O)O)c2ccccc2)CSC1=S (stereo partly specified) | > 100 | > 100 | 81.5 | > 100 | > 100 | > 100 |  | > 100 | > 100 | > 100 | > 100 | > 100 | > 100 |  | > 100 | > 100 |  |  |  | > 100
COC(=O)N/N=C(/CCN1CCCC1)CC(c1ccccc1)c1c(O)c2ccccc2oc1=O (stereo unspecified) |  | > 100 | > 100 | > 100 | > 100 | > 100 | > 100 | > 100 | > 100 | > 100 | > 100 | > 100 | > 100 | > 100 | > 100 | > 100 |  |  |  | > 100
Cc1ccc([N+](=O)[O-])cc1NC(=O)C(=O)Cc1occc(=O)c1O | > 100 | > 100 | > 100 | > 100 | > 100 | > 100 | > 100 | > 100 |  | > 100 |  | > 100 | > 100 | > 100 | > 100 | > 100 |  |  |  | > 100
CCOC(=O)C(Cc1c2ccccc2cc2ccccc12)(NC(C)=O)C(=O)OCC | 83.1 |  | > 100 | > 100 | > 100 | > 100 | > 100 | > 100 | > 100 | > 100 | > 100 | > 100 | > 100 | > 100 | > 100 | > 100 | > 100 | > 100 | > 100 | > 100
